Measurements as given in PMC8619673 (Cells, 2021).

Assays:
Format in all cases: cell-based, Human
Aβ-GFP RNA = experiment: Real-time PCR of Aβ-GFP RNA; details: 5 μM; untreated 28.6; not significantly affected
Description: RNA was extracted using TRIzol reagent (Invitrogen, Carlsbad, CA, USA), followed by treatment with DNase I (Stratagene, La Jolla, CA, USA). cDNA was synthesized by SuperScript™ III reverse transcriptase (Invitrogen) according to manufacturer’s instruction and used to determine Aβ-GFP mRNA expression by StepOnePlus™ Real-time PCR system (Applied Biosystems, Foster City, CA, USA) using customized GFP primers (forward primer: 5′-[…]-3′, reverse primer: 5′-[…]-3′), FAM/NFQ probe (5′-[…]-3′), and TaqMan hypoxanthine phosphoribosyltransferase 1 (HPRT1) endogenous control (VIC/MGB probe, 4326321E) (Applied Biosystems). Fold change was calculated using the formula 2^ΔCt, ΔCT = CT (HPRT1)—CT (GFP), in which CT indicates the number of threshold cycles.

Aβ-GFP SH-SY5Y cells = experiment: Neurite outgrowth analysis; details: 5 µM; for Neurite total length: induced untreated 23.9, uninduced 31.2; for Neurite length: untreated 25.3
Procedure: Aβ-GFP SH-SY5Y cells (6 × 10^4 cells) were seeded on a 24-well plate with retinoic acid (10 µM) on day 1. Tested coumarins (5 µM) and doxycycline (5 μg/mL) were added on day 2, as described. On day 8, the cells were washed with phosphate-buffered saline (PBS) twice and fixed in 4% paraformaldehyde at 4 °C for 15 min. Cells were permeabilized with Triton X-100 (0.1%) for 10 min, blocked with bovine serum albumin (3%) for 20 min, and stained with anti-neuronal TUBB3 antibody (1:1000; Covance, Princeton, NJ, USA) at 4 °C overnight. The next day, cells were washed with PBS twice and stained by a secondary donkey anti-rabbit Alexa Fluor® 555 antibody (1:1000; Thermo Fisher Scientific) and 4′,6-diamidino-2-phenylindole (DAPI; 0.1 µg/mL; Sigma-Aldrich) at room temperature for 1 h. Neuronal images from at least 60 individual fields (150–250 neurons per field) per experiment were captured at excitation 531/40 nm and emission 593/40 nm wavelengths using an ImageXpress micro confocal high-content imaging system (Molecular Devices). Neurite total length (μm) and numbers of process (the number of primary neurites originated from the cell body of a neuron) and branch (the number of secondary neurites extended from primary neurites) were analyzed using a MetaXpress neurite outgrowth application module (Molecular Devices). For each sample, around 6000 cells were analyzed in each of three independent experiments.
Lentiviral short hairpin RNA (shRNA) targeting TRKB (TRCN0000002243, TRCN0000002245, and TRCN0000002246) and a negative-scrambled control (TRC2.Void) were obtained from the National RNAi Core Facility, IMB/GRC, Academia Sinica (Taipei, Taiwan). As described, cells were plated on 6- or 24-well plates, with retinoic acid added on day 1. Cells were infected with lentivirus (multiplicity of infection, 3 for each shRNA), with polybrene (8 µg/mL; Sigma-Aldrich) on the next day. Cells were pretreated with tested compounds (5 µM) for 8 h after changing medium, followed by doxycycline on day 3. Cells were collected for further analysis on day 9. The hairpin sequences of targeting shRNA were below: • TRCN0000002243: 5’-[…]ctcgag[…]-3’ • TRCN0000002245: 5’-[…]ctcgagATGTT-[…]-3’ • TRCN0000002246: 5’-[…]ctcgag[…]-3’ • TRC2.Void: 5’-[…]ctcgag[…]-3’

AKT = experiment: Western blot, p-AKT; details: 5 µM; induced untreated 81%
Procedure: (§1) Cellular proteins were prepared using a lysis buffer containing NaCl (150 mM), ethylene diamine tetraacetic acid (EDTA, 1 mM, pH8.0), Tris-HCl (50 mM, pH8.0), ethylene glycol tetraacetic acid (EGTA, 1 mM, pH8.0), sodium dodecyl sulfate (SDS, 0.1%), sodium deoxycholate (SD, 0.5%), Triton X-100 (1%), and protease (Sigma-Aldrich), and phosphatase (Abcam, Cambridge, MA, USA) inhibitor cocktails. After quantitation by protein assay kit (Bio-Rad, Hercules, CA, USA), 20 µg proteins were separated by SDS-polyacrylamide (10%) gel electrophoresis and transferred to polyvinylidene difluoride (PVDF) membranes (Sigma-Aldrich) using a Mini Trans-Blot cell (Bio-Rad). After blocking, the membrane was probed with anti-TRKB, anti-p-TRKB (Y516), anti-p-TRKB (Y817) (1:500; Cell Signaling, Danvers, MA, USA), anti-ERK, anti-p-ERK (T202/Y204) (1:1000; Cell Signaling), anti-AKT, anti-p-AKT (S473) (1:1000; Cell Signaling), anti-CREB, anti-p-CREB (S133) (1:1000; Millipore, Billerica, MA, USA), anti-BDNF, anti-BCL2 (1:500; Santa Cruz Biotechnology, Santa Cruz, CA, USA), anti-BAX (1:1000; Cell Signaling), anti-β-tubulin (1:500; Sigma-Aldrich), or anti-GAPDH (1:1000, MDBio, Taipei, Taiwan) antibody. The immune complexes were detected using goat anti-mouse or goat anti-rabbit IgG antibody conjugated with horseradish peroxidase (1:5000; GeneTex, Irvine, CA, USA) and chemiluminescent substrate (Millipore).

ERK = experiment: Western blot, p-ERK; details: 5 µM; induced untreated 79%
Procedure: as §1

[1] = TRKB shRNA-infected cells, untreated 2.9
[2] = induced untreated 1.8, uninduced 2.8
[3] = induced untreated 3.3, uninduced 4.4
[4] = scrambled shRNA-infected cells, untreated 2.4
[5] = scrambled shRNA-infected cells, untreated 3.5

SMILES	Relative Aβ-GFP/HPRT1 RNA level (Aβ-GFP RNA)	Neurite process number (Aβ-GFP SH-SY5Y cells; [1])	Neurite branch number (Aβ-GFP SH-SY5Y cells; [2])	Neurite process number (Aβ-GFP SH-SY5Y cells; [3])	Neurite total length (Aβ-GFP SH-SY5Y cells)	Neurite branch number (Aβ-GFP SH-SY5Y cells; [4])	Neurite process number (Aβ-GFP SH-SY5Y cells; [5])	Neurite length (Aβ-GFP SH-SY5Y cells; scrambled shRNA-infected cells)	p-AKT (S473) protein level relative to uninduced cells (100%) (AKT)	p-ERK (T202/Y204) protein level relative to uninduced cells (100%) (ERK)
O=C(/C=C/c1ccccc1O)c1c(O)c2ccccc2oc1=O [ZN015, (E)-4-hydroxy-3-(3-(2-hydroxyphenyl)acryloyl)-2H-chromen-2-one]	29.2–30.0 folds of induction	3.5	2.4–2.5	4.2–4.3	29.1–29.3 μm	3.0–3.1	3.9–4.0	30.7–30.9 µm	91–110%	95–107%
CCOC(=O)c1cc2c(O)cccc2oc1=O [ZN014, ethyl 5-hydroxy-2-oxo-2H-chromene-3-carboxylate]	29.2–30.0 folds of induction	3.5	2.4–2.5	4.2–4.3	29.1–29.3 μm	3.0–3.1	3.9–4.0	30.7–30.9 µm	91–110%	95–107%
